# What was measured:
# [1] = target: β-lactamase from Enterobacter cloacae (Enterobacter cloacae, UniProt P05364); assay: Enzyme-mediated cleavage of the prodrug (fluorescence emission); format: biochemical
# Text: FIGS. 6A and B show plots of (a) fluorescence emission vs. wavelength and (b) fluorescence emission vs. time for the Cephalosporanic acid-photosensitizer prodrug, depicting the enzyme-mediated cleavage of the prodrug.
# The prodrug obtained was further studied for release of photosensitizer in presence of β-lactamase from Enterobacter cloacae. For the fluorescence emission study of the prodrug, the solvent employed was water, and the excitation wavelength 635 nm in the presence of beta-lactamase enzyme (from Enterobacter cloacae). Time-dependent fluorescence emission was also measured for photosensitizer release from the prodrug in the presence of enzyme. […] Thus, the prodrug was ynthesized and characterized.
# [2] = UV-visible and fluorescence emission spectra of prodrug vs. free photosensitizer (TBO); format: physicochemical
# β-lactamase from Enterobacter cloacae, sequence (P05364 21-381): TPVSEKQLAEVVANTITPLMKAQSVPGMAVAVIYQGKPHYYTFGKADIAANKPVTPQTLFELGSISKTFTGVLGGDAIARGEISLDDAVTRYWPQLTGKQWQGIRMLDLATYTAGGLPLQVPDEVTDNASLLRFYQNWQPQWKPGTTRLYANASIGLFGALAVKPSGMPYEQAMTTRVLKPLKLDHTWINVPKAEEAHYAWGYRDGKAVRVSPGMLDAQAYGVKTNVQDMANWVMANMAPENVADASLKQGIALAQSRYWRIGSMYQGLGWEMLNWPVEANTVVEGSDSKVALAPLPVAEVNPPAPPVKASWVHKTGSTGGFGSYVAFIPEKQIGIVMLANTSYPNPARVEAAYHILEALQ
substance,measurement,setting,value
Cephalosporanic Acid-Toluidine blueO Prodrug,lactamase-specific activity,[1],demonstrated lactamase-specific activity
same,increase in excited stated properties (fluorescence emission) on incubation with enzyme,"[1]; water, excitation 635 nm, within minutes of incubation with β-lactamase",~5 fold
same,quenching of the photosensitizer in the conjugated form,[2],quantitative quenching
same,reduction in fluorescence emission maxima (prodrug vs. TBO),"[2]; 635 nm excitation, ethanol",~8 fold
same,shift in the absorption spectra (UV-visible),"[2]; ethanol, 2.0×10^−5 M, vs. TBO",blue shift
